Assay results from BigSolDB 2.1.

Nc1cccc2c(N)cccc12
solubility (mole fraction)
Details	273.15 K	278.15 K	283.15 K	288.15 K	293.15 K	298.15 K	303.15 K	308.15 K	313.15 K
in acetonitrile	0.00186	0.00238	0.00305	0.00382	0.00477	0.00577	0.00695	0.00834	0.00983
in ethyl acetate	0.00404	0.00487	0.00569	0.00662	0.00759	0.00869	0.00992	0.0113	0.0128
in isopropanol	0.000471	0.000564	0.000684	0.000807	0.000947	0.0011	0.00126	0.00144	0.00163
in methanol	0.00112	0.00132	0.00154	0.00181	0.00209	0.0024	0.00278	0.0032	0.00369
in n-propanol	0.00064	0.000762	0.000895	0.00105	0.00122	0.00142	0.00165	0.00192	0.00224
in toluene	0.000262	0.000345	0.000445	0.00056	0.000689	0.00084	0.00102	0.0012	0.0014

Nc1cccc2cccc(N)c12
solubility (mole fraction)
Details	273.15 K	278.15 K	283.15 K	288.15 K	293.15 K	298.15 K	303.15 K	308.15 K	313.15 K
in acetonitrile	0.0518	0.065	0.0798	0.0966	0.116	0.139	0.166	0.197	0.231
in ethyl acetate	0.0765	0.091	0.107	0.127	0.152	0.179	0.212	0.252	0.295
in isopropanol	0.0221	0.0277	0.0338	0.0407	0.0491	0.0588	0.0688	0.0807	0.0936
in methanol	0.018	0.0219	0.0267	0.0327	0.0391	0.0467	0.0551	0.0647	0.0754
in n-propanol	0.0385	0.0484	0.0594	0.0718	0.0868	0.103	0.121	0.142	0.166
in toluene	0.0423	0.0512	0.0654	0.0803	0.0966	0.117	0.138	0.163	0.189
